In brackets after ≈: the same amount, converted by molar mass. Activity calls are given as the source filed them. No cut-off for these calls is given here. Numbered stars: 1 amine (or outer) side, 2 acyl side, 3 side chain; on linkers, the order of the positions; unused ones are H or OH. Square brackets hold non-standard residues; d marks the D form. Peptide text beside a SMILES is read from it. Pro(N-(CH2)3Gua,cis-4-NH-) = N=C(N)NCCCN1C[C@@H](N[*:1])C[C@H]1C(=O)[*:2]; Pro(cis-4-guanidino) = NC(N)=N[C@@H]1CN[C@H](C(=O)O)C1; βAla = NCCC(=O)O
Assays:
Escherichia coli [1] = assay: Antibacterial activity against Escherichia coli NCIM 2688 after 8 hrs by serial dilution method; format: functional, organism-based; settings: NCIM 2688, 8 h
Pseudomonas aeruginosa = assay: Antibacterial activity against Pseudomonas aeruginosa NCIM 2036 after 8 hrs by serial dilution method; format: functional, organism-based; settings: NCIM 2036, 8 h
Enterobacter sp. = assay: Antibacterial activity against Enterobacter sp. NCIM 5392 after 8 hrs by serial dilution method; format: functional, organism-based; settings: NCIM 5392, 8 h
Bacillus subtilis = assay: Antibacterial activity against Bacillus subtilis NCIM 2079 after 12 hrs by serial dilution method; format: functional, organism-based; settings: NCIM 2079, 12 h
Staphylococcus aureus [2] = assay: Antibacterial activity against Staphylococcus aureus NCIM 2010 after 12 hrs by serial dilution method; format: functional, organism-based; settings: NCIM 2010, 12 h
[3] = test system: Staphylococcus epidermidis; assay: Antibacterial activity against Staphylococcus epidermidis NCIM 5270 after 12 hrs by serial dilution method; format: functional, organism-based; settings: NCIM 5270, 12 h
[4] = test system: Mycobacterium tuberculosis; assay: Antitubercular activity against dormant stage of Mycobacterium tuberculosis H37Ra ATCC 25177 after 12 days by XRMA; format: functional, organism-based; settings: H37Ra ATCC 25177, 288 h
[5] = test system: Mycobacterium tuberculosis; assay: Antitubercular activity against active stage of Mycobacterium tuberculosis H37Ra ATCC 25177 after 8 days by XRMA; format: functional, organism-based; settings: H37Ra ATCC 25177, 192 h
Staphylococcus aureus [6] = assay: Disruption of cell wall in Staphylococcus aureus NCIM 2010 at MIC after 60 mins by transmission electron microscopic method; format: functional, organism-based
Escherichia coli [7] = assay: Disruption of cell wall in Escherichia coli NCIM 2688 at MIC after 60 mins by transmission electron microscopic method; format: functional, organism-based
[8] = Cytotoxicity against human HeLa cells assessed as cell viability at 1 to 10 uM after 24 hrs by MTT assay relative to control; format: cell-based; settings: read-out: Activity

SMILES	IC50 (Escherichia coli [1])	MIC (Escherichia coli [1])	IC50 (Pseudomonas aeruginosa)	MIC (Pseudomonas aeruginosa)	IC50 (Enterobacter sp.)	MIC (Enterobacter sp.)	IC50 (Bacillus subtilis)	MIC (Bacillus subtilis)	IC50 (Staphylococcus aureus [2])	MIC (Staphylococcus aureus [2])	IC50 [3]	MIC [3]	IC50 [4]	MIC [4]	IC50 [5]	MIC [5]	Activity (Staphylococcus aureus [6])	Activity (Escherichia coli [7])	viability at 24 h, up to 10 µM [8]
CC(=O)N[C@@H](Cc1ccccc1)C(=O)NCC(=O)N[C@@H](CCCNC(=N)N)C(=O)N[C@@H](CCCCN)C(=O)N[C@@H](CCCCN)C(=O)N[C@@H](CCCNC(=N)N)C(=O)N[C@@H](CCCNC(=N)N)C(=O)N[C@@H](CCC(N)=O)C(=O)N[C@@H](CCCNC(=N)N)C(=O)N[C@@H](CCCNC(=N)N)C(=O)N[C@H]1C[C@@H](C(=O)NCCC(N)=O)N(CCCNC(=N)N)C1 (Ac-FGRKKRRQRR[Pro(N-(CH2)3Gua,cis-4-NH-)][βAla]-NH2)	8 nM	5.71 µM (≈ 9.77 µg/mL)	9.3 nM	3.35 µM (≈ 5.73 µg/mL)	13 nM	18.9 µM (≈ 32.3 µg/mL)	9.3 nM	3.56 µM (≈ 6.09 µg/mL)	7 nM	8.47 µM (≈ 14.5 µg/mL)	10 nM	4.92 µM (≈ 8.42 µg/mL)	1970 nM	18.4 µM (≈ 31.5 µg/mL)	2420 nM	27.6 µM (≈ 47.2 µg/mL)	Active	Active	≥ 80%
CC(=O)N[C@@H](Cc1ccccc1)C(=O)NCC(=O)N[C@@H](CCCNC(=N)N)C(=O)N[C@@H](CCCCN)C(=O)N[C@@H](CCCCN)C(=O)N[C@@H](CCCNC(=N)N)C(=O)N[C@@H](CCCNC(=N)N)C(=O)N[C@@H](CCC(N)=O)C(=O)N[C@@H](CCCNC(=N)N)C(=O)N[C@@H](CCCNC(=N)N)C(=O)N1C[C@@H](NC(=N)N)C[C@H]1C(=O)NCCC(N)=O (Ac-FGRKKRRQRR[Pro(cis-4-guanidino)][βAla]-NH2)	92 nM	6.73 µM (≈ 11.1 µg/mL)	70 nM	10.3 µM (≈ 17 µg/mL)	–	–	149 nM	7.96 µM (≈ 13.2 µg/mL)	86 nM	10.9 µM (≈ 18.1 µg/mL)	–	–	910 nM	23.9 µM (≈ 39.5 µg/mL)	9700 nM	32.1 µM (≈ 53.1 µg/mL)	–	–	≥ 80%
CC(=O)N[C@@H](Cc1ccccc1)C(=O)NCC(=O)N[C@@H](CCCNC(=N)N)C(=O)N[C@@H](CCCCN)C(=O)N[C@@H](CCCCN)C(=O)N[C@H]1C[C@@H](C(=O)N[C@@H](CCCNC(=N)N)C(=O)N[C@@H](CCC(N)=O)C(=O)N[C@@H](CCCNC(=N)N)C(=O)N[C@@H](CCCNC(=N)N)C(=O)N[C@@H](CCCNC(=N)N)C(=O)NCCC(N)=O)N(CCCNC(=N)N)C1 (Ac-FGRKK[Pro(N-(CH2)3Gua,cis-4-NH-)]RQRRR[βAla]-NH2)	18 nM	7.25 µM (≈ 12.4 µg/mL)	5 nM	2.67 µM (≈ 4.57 µg/mL)	14 nM	4.7 µM (≈ 8.04 µg/mL)	45 nM	14.1 µM (≈ 24.1 µg/mL)	23 nM	5.25 µM (≈ 8.98 µg/mL)	14 nM	8.95 µM (≈ 15.3 µg/mL)	1280 nM	13.8 µM (≈ 23.6 µg/mL)	3000 nM	20.1 µM (≈ 34.4 µg/mL)	–	–	≥ 80%
CC(=O)N[C@@H](Cc1ccccc1)C(=O)NCC(=O)N[C@@H](CCCNC(=N)N)C(=O)N[C@@H](CCCCN)C(=O)N[C@@H](CCCCN)C(=O)N1C[C@@H](NC(=N)N)C[C@H]1C(=O)N[C@@H](CCCNC(=N)N)C(=O)N[C@@H](CCC(N)=O)C(=O)N[C@@H](CCCNC(=N)N)C(=O)N[C@@H](CCCNC(=N)N)C(=O)N[C@@H](CCCNC(=N)N)C(=O)NCCC(N)=O (Ac-FGRKK[Pro(cis-4-guanidino)]RQRRR[βAla]-NH2)	92 nM	13.5 µM (≈ 22.3 µg/mL)	47 nM	6.53 µM (≈ 10.8 µg/mL)	–	–	344 nM	29.9 µM (≈ 49.4 µg/mL)	104 nM	8.65 µM (≈ 14.3 µg/mL)	–	–	2510 nM	33.9 µM (≈ 56.1 µg/mL)	4450 nM	28.6 µM (≈ 47.3 µg/mL)	–	–	≥ 80%
CC(=O)N[C@@H](Cc1ccccc1)C(=O)NCC(=O)N[C@H]1C[C@@H](C(=O)N[C@@H](CCCCN)C(=O)N[C@@H](CCCCN)C(=O)N[C@@H](CCCNC(=N)N)C(=O)N[C@H]2C[C@@H](C(=O)N[C@@H](CCC(N)=O)C(=O)N[C@@H](CCCNC(=N)N)C(=O)N[C@@H](CCCNC(=N)N)C(=O)N[C@H]3C[C@@H](C(=O)NCCC(N)=O)N(CCCNC(=N)N)C3)N(CCCNC(=N)N)C2)N(CCCNC(=N)N)C1 (Ac-FG[Pro(N-(CH2)3Gua,cis-4-NH-)]KKR[Pro(N-(CH2)3Gua,cis-4-NH-)]QRR[Pro(N-(CH2)3Gua,cis-4-NH-)][βAla]-NH2)	18 nM	7.58 µM (≈ 13.8 µg/mL)	9.8 nM	1.82 µM (≈ 3.31 µg/mL)	24 nM	8.01 µM (≈ 14.6 µg/mL)	10.4 nM	2.81 µM (≈ 5.12 µg/mL)	10.4 nM	9.05 µM (≈ 16.5 µg/mL)	6.5 nM	9.44 µM (≈ 17.2 µg/mL)	2200 nM	22.8 µM (≈ 41.5 µg/mL)	8400 nM	26.1 µM (≈ 47.5 µg/mL)	–	–	≥ 80%
CC(=O)N[C@@H](Cc1ccccc1)C(=O)NCC(=O)N1C[C@@H](NC(=N)N)C[C@H]1C(=O)N[C@@H](CCCCN)C(=O)N[C@@H](CCCCN)C(=O)N[C@@H](CCCNC(=N)N)C(=O)N1C[C@@H](NC(=N)N)C[C@H]1C(=O)N[C@@H](CCC(N)=O)C(=O)N[C@@H](CCCNC(=N)N)C(=O)N[C@@H](CCCNC(=N)N)C(=O)N1C[C@@H](NC(=N)N)C[C@H]1C(=O)NCCC(N)=O (Ac-FG[Pro(cis-4-guanidino)]KKR[Pro(cis-4-guanidino)]QRR[Pro(cis-4-guanidino)][βAla]-NH2)	105 nM	11.8 µM (≈ 19.5 µg/mL)	92 nM	12.6 µM (≈ 20.8 µg/mL)	–	–	135 nM	13.2 µM (≈ 21.8 µg/mL)	227 nM	20.5 µM (≈ 33.9 µg/mL)	–	–	500 nM	21.1 µM (≈ 34.8 µg/mL)	10600 nM	36.3 µM (≈ 59.9 µg/mL)	–	–	≥ 80%

— ChEMBL document CHEMBL4152250, “Antibacterial and anti-TB tat-peptidomimetics with improved efficacy and half-life” (Eur J Med Chem, 2018)
